Test results as given in patent US8933195B2, “Histone deacetylase inhibitors and synthetic method thereof and use thereof in manufacture of medicaments” (Nanjing Yoko Biomedical R & D Ltd., priority 2011, dated 2015).

Legend:
[1] = target: T1, HDAC7 (Homo sapiens, UniProt Q8WUI4); assay: Measurement of biochemical activities of HDAC (fluorescently-labeled acetylated lysine substrate)
T1 sequence (Q8WUI4 1-952): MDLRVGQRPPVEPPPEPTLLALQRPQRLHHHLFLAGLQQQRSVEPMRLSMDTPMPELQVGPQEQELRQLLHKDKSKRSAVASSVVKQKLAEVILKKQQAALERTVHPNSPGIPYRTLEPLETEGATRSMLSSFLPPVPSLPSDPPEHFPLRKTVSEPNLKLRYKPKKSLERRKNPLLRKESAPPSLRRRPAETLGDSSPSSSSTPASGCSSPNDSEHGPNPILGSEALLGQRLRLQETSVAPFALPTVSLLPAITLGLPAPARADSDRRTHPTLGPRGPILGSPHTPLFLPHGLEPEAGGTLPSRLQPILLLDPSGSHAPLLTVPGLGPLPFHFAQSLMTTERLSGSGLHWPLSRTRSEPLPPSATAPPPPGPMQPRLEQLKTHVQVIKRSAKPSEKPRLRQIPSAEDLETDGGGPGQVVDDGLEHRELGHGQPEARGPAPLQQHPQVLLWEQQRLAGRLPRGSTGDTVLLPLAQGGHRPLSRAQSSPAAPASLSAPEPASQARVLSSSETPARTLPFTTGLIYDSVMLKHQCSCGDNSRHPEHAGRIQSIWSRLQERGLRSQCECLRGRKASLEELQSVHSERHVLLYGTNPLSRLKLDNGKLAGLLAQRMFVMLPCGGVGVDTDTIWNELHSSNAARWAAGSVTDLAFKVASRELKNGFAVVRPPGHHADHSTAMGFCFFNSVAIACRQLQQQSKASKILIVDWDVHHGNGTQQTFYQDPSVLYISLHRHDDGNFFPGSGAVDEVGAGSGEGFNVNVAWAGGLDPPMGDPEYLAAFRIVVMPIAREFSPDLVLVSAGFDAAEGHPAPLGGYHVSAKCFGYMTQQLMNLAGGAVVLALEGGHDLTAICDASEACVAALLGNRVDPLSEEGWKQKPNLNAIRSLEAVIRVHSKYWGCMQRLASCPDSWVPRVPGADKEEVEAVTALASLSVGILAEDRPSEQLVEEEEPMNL
Method in brief: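 For both HDAC isoforms, fluorescent acetyl-lysine substrate ([…] in reaction) incubated with enzyme and compounds for 30 min at 37; developer then added for 15 min at room temperature. Fluorescence read at excitation 360 nm, emission 460 nm.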

[2] = system: Incap; assay: MTT cancer cell growth inhibition; format: cell-based; details: 72 h
[3] = system: human colon cancer HCT-116; assay: Subcutaneously transplanted tumors in nude mice; format: in vivo, BALB/cA nude mice; set-up: key to RTV (mean ± SD): RTV = Vt/V0, tumor volume at time t over volume at d0; details: for 1-T/C tumor inhibition rate: after three weeks; for RTV (mean ± SD) / TV (mean ± SD) d21: d21
Method: The solvents are isopropanol and anhydrous ethanol (mixed in the volume ratio of 1:1). The test sample is dissolved with solvents and physiological saline in the ratio of 1:1 for use, and the above solvents and physiological saline are dissolved in the ratio of 1:1 as a negative control.
The number of mice in each group: 12 mice in the negative control group, and 6 mice in the administration group.
The cell strains are inoculated to the right axilla subcutaneous layer of the nude mice, with 5×10^6 per mouse. After formed, the transplanted tumors are passed down two generations in the nude mice and then used.
Tumor tissues in the vigorous growth period are cut into about 1.5 mm^3, and inoculated to the right axilla subcutaneous layer of the nude mice under aseptic conditions. For the subcutaneously transplanted tumors of the nude mice, the diameter of the transplanted tumors is measured by a vernier caliper. The mice are randomly grouped after the tumors grow to 100-200 mm^3. […] The diameter of the transplanted tumors is measured twice per week in the whole experimental process, and meanwhile the weight of the mice is weighed. The calculation formula of tumor volume (TV) is TV=½×a×b^2, where a and b represent length and width, respectively.
The relative tumor volume (RTV) is calculated according to the measured results, with the following calculation formula: RTV=Vt/V0, where V0 is the tumor volume obtained by measurement during administration in different cages (i.e., d0), Vt is the tumor volume obtained by measurement at each time. […] (Wc−WT)Wc×100%, where Wc is the tumor weight of the control group, and WT is the tumor weight of the treatment group.

[4] = Table 2.1, 20 mg/kg q3d × 3w iv
[5] = Table 1.1, 10 mg/kg q3d × 3w iv
[6] = Table 1.1, 20 mg/kg q3d × 3w iv

C/C=C1\NC(=O)c2csc(n2)CNC(=O)C[C@@H](/C=C/CCSC(=O)CCCCCCC)OC(=O)[C@H](C)NC1=O [Compound 1-4]
IC50 HDAC7 [1]: no activity | GI50 [2]: 200 nM | 1-T/C tumor inhibition rate [3, 4]: 74.46% | TV (mean ± SD) d0 [3, 4]: 116 ± 23 mm^3 | Weight d0 [3, 4]: 16.6 g | RTV (mean ± SD) [3, 4]: 2.65 ± 1.70 | TV (mean ± SD) d21 [3, 4]: 308 ± 198 mm^3 | Tumor Volume TV (mean ± SD) d 0 ([3]; Table 2.2, 20 mg/kg): 118 ± 23 mm^3 | Tumor Volume TV (mean ± SD) d 3 ([3]; Table 2.2, 20 mg/kg): 126 ± 12 mm^3 | Tumor Volume TV (mean ± SD) d 7 ([3]; Table 2.2, 20 mg/kg): 157 ± 26 mm^3 | Tumor Volume TV (mean ± SD) d 10 ([3]; Table 2.2, 20 mg/kg): 189 ± 52 mm^3 | Tumor Volume TV (mean ± SD) d 14 ([3]; Table 2.2, 20 mg/kg): 234 ± 103 mm^3 | Tumor Volume TV (mean ± SD) d 17 ([3]; Table 2.2, 20 mg/kg): 262 ± 132 mm^3 | Weight (mean ± SD) d 0 ([3]; Table 2.3, 20 mg/kg): 16.6 ± 1.2 g | Weight (mean ± SD) d 3 ([3]; Table 2.3, 20 mg/kg): 16.2 ± 1.4 g | Weight (mean ± SD) d 7 ([3]; Table 2.3, 20 mg/kg): 14.8 ± 1.2 g | Weight (mean ± SD) d 10 ([3]; Table 2.3, 20 mg/kg): 14.5 ± 1.0 g | Weight (mean ± SD) d 14 ([3]; Table 2.3, 20 mg/kg): 13.8 ± 0.9 g | Weight (mean ± SD) d 17 ([3]; Table 2.3, 20 mg/kg): 13.3 ± 0.9 g | Weight (mean ± SD) d 21 ([3]; Table 2.3, 20 mg/kg): 13.0 ± 1.0 g

C/C=C1\NC(=O)c2csc(n2)CNC(=O)C[C@@H](/C=C/CCSC(=O)CCCCCCC)OC(=O)[C@H](Cc2ccc(O)cc2)NC1=O [Compound 1-8]
IC50 HDAC7 [1]: no activity | GI50 [2]: 200 nM | 1-T/C tumor inhibition rate [3, 4]: 69.49% | TV (mean ± SD) d0 [3, 4]: 116 ± 22 mm^3 | Weight d0 [3, 4]: 16.1 g | RTV (mean ± SD) [3, 4]: 3.17 ± 2.08 | TV (mean ± SD) d21 [3, 4]: 368 ± 241 mm^3 | Tumor Volume TV (mean ± SD) d 0 ([3]; Table 2.2, 20 mg/kg): 118 ± 22 mm^3 | Tumor Volume TV (mean ± SD) d 3 ([3]; Table 2.2, 20 mg/kg): 139 ± 15 mm^3 | Tumor Volume TV (mean ± SD) d 7 ([3]; Table 2.2, 20 mg/kg): 165 ± 28 mm^3 | Tumor Volume TV (mean ± SD) d 10 ([3]; Table 2.2, 20 mg/kg): 203 ± 69 mm^3 | Tumor Volume TV (mean ± SD) d 14 ([3]; Table 2.2, 20 mg/kg): 265 ± 127 mm^3 | Tumor Volume TV (mean ± SD) d 17 ([3]; Table 2.2, 20 mg/kg): 305 ± 142 mm^3 | Weight (mean ± SD) d 0 ([3]; Table 2.3, 20 mg/kg): 16.3 ± 1.0 g | Weight (mean ± SD) d 3 ([3]; Table 2.3, 20 mg/kg): 15.8 ± 1.1 g | Weight (mean ± SD) d 7 ([3]; Table 2.3, 20 mg/kg): 15.1 ± 0.9 g | Weight (mean ± SD) d 10 ([3]; Table 2.3, 20 mg/kg): 14.5 ± 1.2 g | Weight (mean ± SD) d 14 ([3]; Table 2.3, 20 mg/kg): 14.0 ± 1.0 g | Weight (mean ± SD) d 17 ([3]; Table 2.3, 20 mg/kg): 13.5 ± 0.9 g | Weight (mean ± SD) d 21 ([3]; Table 2.3, 20 mg/kg): 12.9 ± 0.9 g

C/C=C1\NC(=O)c2csc(n2)CNC(=O)C[C@@H](/C=C/CCSC(=O)CCCCCCC)OC(=O)[C@H](C(C)C)NC1=O [Compound 1-3]
IC50 HDAC7 [1]: no activity | GI50 [2]: 2000 nM | 1-T/C tumor inhibition rate ([3]; Table 1.1, 5 mg/kg q3d × 3w iv): 7.92% | TV (mean ± SD) d0 ([3]; Table 1.1, 5 mg/kg q3d × 3w iv): 122 ± 25 mm^3 | Weight d0 ([3]; Table 1.1, 5 mg/kg q3d × 3w iv): 16.7 g | RTV (mean ± SD) ([3]; Table 1.1, 5 mg/kg q3d × 3w iv): 9.56 ± 2.44 | TV (mean ± SD) d21 ([3]; Table 1.1, 5 mg/kg q3d × 3w iv): 1166 ± 201 mm^3 | 1-T/C tumor inhibition rate [3, 5]: 39.71% | TV (mean ± SD) d0 [3, 5]: 120 ± 19 mm^3 | Weight d0 [3, 5]: 17.5 g | RTV (mean ± SD) [3, 5]: 6.26 ± 3.33 | TV (mean ± SD) d21 [3, 5]: 751 ± 244 mm^3 | 1-T/C tumor inhibition rate [3, 6]: 70.26% | TV (mean ± SD) d0 [3, 6]: 116 ± 26 mm^3 | Weight d0 [3, 6]: 16.7 g | RTV (mean ± SD) [3, 6]: 3.09 ± 3.14 | TV (mean ± SD) d21 [3, 6]: 358 ± 201 mm^3 | Tumor Volume TV (mean ± SD) d 0 ([3]; Table 1.2, 5 mg/kg): 122 ± 25 mm^3 | Tumor Volume TV (mean ± SD) d 3 ([3]; Table 1.2, 5 mg/kg): 179 ± 15 mm^3 | Tumor Volume TV (mean ± SD) d 7 ([3]; Table 1.2, 5 mg/kg): 343 ± 58 mm^3 | Tumor Volume TV (mean ± SD) d 10 ([3]; Table 1.2, 5 mg/kg): 454 ± 41 mm^3 | Tumor Volume TV (mean ± SD) d 14 ([3]; Table 1.2, 5 mg/kg): 605 ± 60 mm^3 | Tumor Volume TV (mean ± SD) d 17 ([3]; Table 1.2, 5 mg/kg): 895 ± 138 mm^3 | Tumor Volume TV (mean ± SD) d 0 ([3]; Table 1.2, 10 mg/kg): 120 ± 19 mm^3 | Tumor Volume TV (mean ± SD) d 3 ([3]; Table 1.2, 10 mg/kg): 163 ± 38 mm^3 | Tumor Volume TV (mean ± SD) d 7 ([3]; Table 1.2, 10 mg/kg): 217 ± 67 mm^3 | Tumor Volume TV (mean ± SD) d 10 ([3]; Table 1.2, 10 mg/kg): 302 ± 105 mm^3 | Tumor Volume TV (mean ± SD) d 14 ([3]; Table 1.2, 10 mg/kg): 408 ± 70 mm^3 | Tumor Volume TV (mean ± SD) d 17 ([3]; Table 1.2, 10 mg/kg): 571 ± 175 mm^3 | Tumor Volume TV (mean ± SD) d 0 ([3]; Table 1.2, 20 mg/kg): 116 ± 26 mm^3 | Tumor Volume TV (mean ± SD) d 3 ([3]; Table 1.2, 20 mg/kg): 129 ± 10 mm^3 | Tumor Volume TV (mean ± SD) d 7 ([3]; Table 1.2, 20 mg/kg): 155 ± 28 mm^3 | Tumor Volume TV (mean ± SD) d 10 ([3]; Table 1.2, 20 mg/kg): 193 ± 68 mm^3 | Tumor Volume TV (mean ± SD) d 14 ([3]; Table 1.2, 20 mg/kg): 245 ± 117 mm^3 | Tumor Volume TV (mean ± SD) d 17 ([3]; Table 1.2, 20 mg/kg): 275 ± 112 mm^3 | Weight (mean ± SD) d 0 ([3]; Table 1.3, 5 mg/kg): 16.7 ± 0.6 g | Weight (mean ± SD) d 3 ([3]; Table 1.3, 5 mg/kg): 15.9 ± 0.7 g | Weight (mean ± SD) d 7 ([3]; Table 1.3, 5 mg/kg): 15.0 ± 0.9 g | Weight (mean ± SD) d 10 ([3]; Table 1.3, 5 mg/kg): 14.5 ± 1.2 g | Weight (mean ± SD) d 14 ([3]; Table 1.3, 5 mg/kg): 14.1 ± 1.0 g | Weight (mean ± SD) d 17 ([3]; Table 1.3, 5 mg/kg): 13.5 ± 0.9 g | Weight (mean ± SD) d 21 ([3]; Table 1.3, 5 mg/kg): 13.3 ± 1.0 g | Weight (mean ± SD) d 0 ([3]; Table 1.3, 10 mg/kg): 17.5 ± 1.6 g | Weight (mean ± SD) d 3 ([3]; Table 1.3, 10 mg/kg): 16.6 ± 1.9 g | Weight (mean ± SD) d 7 ([3]; Table 1.3, 10 mg/kg): 15.8 ± 2.0 g | Weight (mean ± SD) d 10 ([3]; Table 1.3, 10 mg/kg): 15.7 ± 2.0 g | Weight (mean ± SD) d 14 ([3]; Table 1.3, 10 mg/kg): 14.8 ± 1.8 g | Weight (mean ± SD) d 17 ([3]; Table 1.3, 10 mg/kg): 14.2 ± 1.7 g | Weight (mean ± SD) d 21 ([3]; Table 1.3, 10 mg/kg): 13.5 ± 1.6 g | Weight (mean ± SD) d 0 ([3]; Table 1.3, 20 mg/kg): 16.7 ± 0.5 g | Weight (mean ± SD) d 3 ([3]; Table 1.3, 20 mg/kg): 16.1 ± 0.4 g | Weight (mean ± SD) d 7 ([3]; Table 1.3, 20 mg/kg): 14.6 ± 0.4 g | Weight (mean ± SD) d 10 ([3]; Table 1.3, 20 mg/kg): 14.7 ± 0.4 g | Weight (mean ± SD) d 14 ([3]; Table 1.3, 20 mg/kg): 13.7 ± 0.3 g | Weight (mean ± SD) d 17 ([3]; Table 1.3, 20 mg/kg): 13.0 ± 0.3 g | Weight (mean ± SD) d 21 ([3]; Table 1.3, 20 mg/kg): 13.1 ± 0.6 g
